Species on record: Rattus norvegicus
Experiment: DrugMatrix - Regimen: Daily Repeat
Assay type: toxicity, organism-based, Sprague-Dawley
Parameters: regimen Daily Repeat, gender Male, age 6-8 weeks
Conditions: in vivo, po, route oral GAVAGE, vehicle 100 % WATER; for ABSOLUTE BASOPHIL / ABSOLUTE EOSINOPHIL / ABSOLUTE LYMPHOCYTE / ABSOLUTE MONOCYTE / ABSOLUTE SEGMENTED NEUTROPHIL / BASOPHIL / EOSINOPHIL / ERYTHROCYTE COUNT / HEMATOCRIT / HEMOGLOBIN / LEUKOCYTE COUNT / LYMPHOCYTE / MEAN CORPUSCULAR HEMOGLOBIN / MEAN CORPUSCULAR HEMOGLOBIN CONCENTRATION / MEAN CORPUSCULAR VOLUME / MONOCYTE / NEUTROPHIL / NUCLEATED RED BLOOD CELLS / PLATELET COUNT: tissue Blood; for ALANINE AMINOTRANSFERASE / ALBUMIN / ALKALINE PHOSPHATASE / ASPARTATE AMINOTRANSFERASE / BLOOD UREA NITROGEN / CARBON DIOXIDE / CHLORIDE / CHOLESTEROL / CREATINE PHOSPHOKINASE / CREATININE / GLUCOSE / LACTATE DEHYDROGENASE / LIPASE / PHOSPHORUS / POTASSIUM / SODIUM / TOTAL BILIRUBIN / TOTAL PROTEIN / URIC ACID: tissue Plasma
[1] = 0 mg/kg, 72 h, dose level Control, time 3 day
[2] = 0 mg/kg, 120 h, dose level Control, time 5 day
[3] = 58 mg/kg, 72 h, dose level Low, time 3 day

In the case of `NC12CC3CC(CC(C3)C1)C2` [AMANTADINE], the “ABSOLUTE BASOPHIL” value [1] is reported as 0 CELLS/uL, the “ABSOLUTE EOSINOPHIL” value [1] is reported as 58.83 CELLS/uL and the “ABSOLUTE LYMPHOCYTE” value [1] is reported as 11823.5 CELLS/uL. For the same compound, the “ABSOLUTE MONOCYTE” value [1] was 169 CELLS/uL, the “ABSOLUTE SEGMENTED NEUTROPHIL” value [1] was 815.33 CELLS/uL and the BASOPHIL [1] was 0%. The EOSINOPHIL [1] was 0.5%, the “ERYTHROCYTE COUNT” value [1] was 5.52 x10E6/uL and the HEMATOCRIT [1] was 35.77%. The HEMOGLOBIN [1] was 14.28 G/DL, the “LEUKOCYTE COUNT” value [1] was 12.87 x10E3/uL and the LYMPHOCYTE [1] was 91.67%. The “MEAN CORPUSCULAR HEMOGLOBIN” value [1] was 25.92 pg, the “MEAN CORPUSCULAR HEMOGLOBIN CONCENTRATION” value [1] was 39.95 G/DL and the “MEAN CORPUSCULAR VOLUME” value [1] was 64.85 fL. The MONOCYTE [1] was 1.33%, the NEUTROPHIL [1] was 6.5% and the “NUCLEATED RED BLOOD CELLS” value [1] was 0 /100WBC. For the same compound, the “PLATELET COUNT” value [1] was 1246.17 x10E3/uL, the “ALANINE AMINOTRANSFERASE” value [1] was 66 u/L and the ALBUMIN [1] was 4.25 G/DL. The “ALKALINE PHOSPHATASE” value [1] was 416 u/L, the “ASPARTATE AMINOTRANSFERASE” value [1] was 106.17 u/L and the “BLOOD UREA NITROGEN” value [1] was 12.67 mg/dL. The “CARBON DIOXIDE” value [1] was 31.83 mmol/L, the CHLORIDE [1] was 102.5 MEQ/L and the CHOLESTEROL [1] was 69 mg/dL. The “CREATINE PHOSPHOKINASE” value [1] was 601.83 u/L, the CREATININE [1] was 0.18 mg/dL and the GLUCOSE [1] was 154.5 mg/dL. The “LACTATE DEHYDROGENASE” value [1] was 301.83 u/L, the LIPASE [1] was 11.17 u/L and the PHOSPHORUS [1] was 12.08 mg/dL. For the same compound, the POTASSIUM [1] was 6.12 MEQ/L, the SODIUM [1] was 145.2 MEQ/L and the “TOTAL BILIRUBIN” value [1] was 0.17 mg/dL. For the same compound, the “TOTAL PROTEIN” value [1] was 6.1 G/DL, the “URIC ACID” value [1] was 1.57 mg/dL and the “ABSOLUTE BASOPHIL” value [2] was 0 CELLS/uL. The “ABSOLUTE EOSINOPHIL” value [2] was 19.33 CELLS/uL, the “ABSOLUTE LYMPHOCYTE” value [2] was 12577.83 CELLS/uL and the “ABSOLUTE MONOCYTE” value [2] was 106.33 CELLS/uL. For the same compound, the “ABSOLUTE SEGMENTED NEUTROPHIL” value [2] was 896.5 CELLS/uL, the BASOPHIL [2] was 0% and the EOSINOPHIL [2] was 0.17%. For the same compound, the “ERYTHROCYTE COUNT” value [2] was 5.84 x10E6/uL, the HEMATOCRIT [2] was 36.88% and the HEMOGLOBIN [2] was 14.48 G/DL. The “LEUKOCYTE COUNT” value [2] was 13.6 x10E3/uL, the LYMPHOCYTE [2] was 92.17% and the “MEAN CORPUSCULAR HEMOGLOBIN” value [2] was 24.85 pg. The “MEAN CORPUSCULAR HEMOGLOBIN CONCENTRATION” value [2] was 39.3 G/DL, the “MEAN CORPUSCULAR VOLUME” value [2] was 63.23 fL and the MONOCYTE [2] was 0.83%. The NEUTROPHIL [2] was 6.83%, the “NUCLEATED RED BLOOD CELLS” value [2] was 0 /100WBC and the “PLATELET COUNT” value [2] was 1223.5 x10E3/uL. For the same compound, the “ALANINE AMINOTRANSFERASE” value [2] was 55.33 u/L, the ALBUMIN [2] was 4.08 G/DL and the “ALKALINE PHOSPHATASE” value [2] was 355.5 u/L. For the same compound, the “ASPARTATE AMINOTRANSFERASE” value [2] was 87.67 u/L, the “BLOOD UREA NITROGEN” value [2] was 15.33 mg/dL and the “CARBON DIOXIDE” value [2] was 33.83 mmol/L. For the same compound, the CHLORIDE [2] was 99.67 MEQ/L, the CHOLESTEROL [2] was 72.17 mg/dL and the “CREATINE PHOSPHOKINASE” value [2] was 268.33 u/L. For the same compound, the CREATININE [2] was 0.15 mg/dL, the GLUCOSE [2] was 152.5 mg/dL and the “LACTATE DEHYDROGENASE” value [2] was 212.67 u/L. For the same compound, the LIPASE [2] was 10.83 u/L, the PHOSPHORUS [2] was 11.65 mg/dL and the POTASSIUM [2] was 6.73 MEQ/L. The SODIUM [2] was 142.43 MEQ/L, the “TOTAL BILIRUBIN” value [2] was 0.23 mg/dL and the “TOTAL PROTEIN” value [2] was 6.07 G/DL. The “URIC ACID” value [2] was 1.7 mg/dL, the “ABSOLUTE BASOPHIL” value [3] was 0 CELLS/uL and the “ABSOLUTE EOSINOPHIL” value [3] was 0 CELLS/uL. The “ABSOLUTE LYMPHOCYTE” value [3] was 14460 CELLS/uL, the “ABSOLUTE MONOCYTE” value [3] was 391.33 CELLS/uL and the “ABSOLUTE SEGMENTED NEUTROPHIL” value [3] was 1148.67 CELLS/uL. The BASOPHIL [3] was 0%, the EOSINOPHIL [3] was 0% and the “ERYTHROCYTE COUNT” value [3] was 5.53 x10E6/uL. The HEMATOCRIT [3] was 35.03%, the HEMOGLOBIN [3] was 14 G/DL and the “LEUKOCYTE COUNT” value [3] was 16 x10E3/uL. The LYMPHOCYTE [3] was 90%, the “MEAN CORPUSCULAR HEMOGLOBIN” value [3] was 25.33 pg and the “MEAN CORPUSCULAR HEMOGLOBIN CONCENTRATION” value [3] was 40 G/DL. The “MEAN CORPUSCULAR VOLUME” value [3] was 63.37 fL, the MONOCYTE [3] was 2.33% and the NEUTROPHIL [3] was 7.67%. For the same compound, the “NUCLEATED RED BLOOD CELLS” value [3] was 0 /100WBC, the “PLATELET COUNT” value [3] was 1206.67 x10E3/uL and the “ALANINE AMINOTRANSFERASE” value [3] was 47.67 u/L. For the same compound, the ALBUMIN [3] was 4.17 G/DL, the “ALKALINE PHOSPHATASE” value [3] was 377.33 u/L and the “ASPARTATE AMINOTRANSFERASE” value [3] was 90 u/L. The “BLOOD UREA NITROGEN” value [3] was 13.33 mg/dL, the “CARBON DIOXIDE” value [3] was 31.67 mmol/L and the CHLORIDE [3] was 102.33 MEQ/L. The CHOLESTEROL [3] was 67 mg/dL, the “CREATINE PHOSPHOKINASE” value [3] was 444.67 u/L and the CREATININE [3] was 0.13 mg/dL. For the same compound, the GLUCOSE [3] was 137.33 mg/dL, the “LACTATE DEHYDROGENASE” value [3] was 367.33 u/L and the LIPASE [3] was 11.67 u/L. It also gave a PHOSPHORUS [3] of 12.1 mg/dL, a POTASSIUM [3] of 6.36 MEQ/L and an SODIUM [3] of 145.43 MEQ/L. For the same compound, the “TOTAL BILIRUBIN” value [3] was 0.17 mg/dL, the “TOTAL PROTEIN” value [3] was 5.9 G/DL and the “URIC ACID” value [3] was 1.6 mg/dL.

— ChEMBL document CHEMBL3885881, “DrugMatrix”
